System: P5 cells
Assay: P5 xenografts in nude mice, intratumoural therapy, tumour volume
Type: in vivo
Conditions: Fig. 7
Protocol: P5 cells were injected subcutaneously in nude mice. At a tumour volume of 500 mm^3 therapy was started (day 0) and repeated at day 2 and 12 as indicated by arrows. A total volume of 100 µl in PBS was injected intratumoural containing liposomes and cisplatin (5mg/kg), or liposomes with cisplatin and a mixture of recombinant caspase-8 and -9 proteins (10 U each) and pcDNA3caspase-8 and pcDNA3caspase-9 expression vectors (10 µg each) in the absence (CIS) or presence of DEX (DEX/CIS), (DEX/CIS/CASPASES) in the drinking water (0.28 mg/L). As controls, tumour growth of xenografts from untreated mice (CO) or from mice which received liposomes and empty pcDNA3 expression vector only (CO/Liposomes) was determined. The tumour volume in each animal was measured every second day for a period of 16 days. […]
• (A) Cell culture. […] The mice were given 0.28 mg/L DEX in drinking water, and the amount of water consumed was monitored. […] The tumour volumes were measured using callipers, and calculated using, as an approximation, the formula for volume of a hemi-ellipsoid: π(width^2 x length)/6. […] Early apoptotic changes were identified by staining of cells with fluoresceinthiocyanate (FITC)-conjugated annexin V and propidium iodide (Becton Dickinson, Heidelberg, Germany) and analysed by flow cytometry (FACScan, Becton Dickinson) as described (Herr et al., EMBO J. 16 (1997), 6200-6208) • (E) Immunohistochemistry. […]

Question: Which results are given for `N.N.[Cl][Pt][Cl]` [cisplatin]?
Answer: tumour growth (cisplatin 5mg/kg with liposomes intratumoural, day 0, 2 and 12, initial phase): initially reduced; tumour growth (cisplatin-treated tumours at day 10 after treatment): developed resistance and started to grow
